Measured values from the NIST ThermoML archive (doi:10.1016/j.jct.2013.09.018).

Columns and labels:
[1] = cn = amount concentration of the nth substance listed, in mol/dm3; details: 101 kPa, Liquid; for viscosity: Capillary tube (Ostwald / Ubbelohde) method; for mass density: Vibrating tube method
[2] = 101 kPa, Liquid; for viscosity: Capillary tube (Ostwald / Ubbelohde) method; for mass density: Vibrating tube method

CCCCn1cc[n+](C)c1C.F[B-](F)(F)F [1-butyl-2,3-dimethylimidazolium tetrafluoroborate] + CO
[1]
Details | mass density, c1 = 0.005 [kg/m3] | mass density, c1 = 0.01 [kg/m3] | mass density, c1 = 0.015 [kg/m3] | mass density, c1 = 0.02 [kg/m3] | viscosity, c1 = 0.005 [mPa·s] | viscosity, c1 = 0.01 [mPa·s] | viscosity, c1 = 0.015 [mPa·s] | viscosity, c1 = 0.02 [mPa·s]
298.15 K | 787.59 | 788.04 | 788.45 | 788.96 | 0.552 | 0.5649 | 0.5747 | 0.5845
308.15 K | 778.01 | 778.52 | 778.98 | 779.46 | 0.487 | 0.4978 | 0.5043 | 0.513
318.15 K | 768.49 | 769.43 | 769.92 | 770.36 | 0.4271 | 0.436 | 0.4446 | 0.4532

CO [methanol]
[2]
Details | mass density [kg/m3] | viscosity [mPa·s]
298.15 K | 786.61 | 0.545
308.15 K | 777.15 | 0.476
318.15 K | 767.74 | 0.4183

CO [methanol] + CCCCn1cc[n+](C)c1C.F[B-](F)(F)F
[1], c2 = 0
Details | mass density [kg/m3] | viscosity [mPa·s]
298.15 K | 786.61 | 0.545
308.15 K | 777.15 | 0.476
318.15 K | 767.74 | 0.4183
